In publication PMC12040169 (PLOS Biology, 2025):

Assay: in vitro
Details: human, hela cells, % viability

Structure (SMILES)	viability at 28.5 h, 10 µM [%]
CC(C)OCC1CN(c2cc(CO)c(F)cn2)CCO1 (centres unmarked) [CBK304755]	89.7
Cn1nnc2cc(NCC34CC3CN(C(=O)OC(C)(C)C)C4)ccc21 (centres unmarked) [CBK304758]	92.7
CCOC(=O)C1CSCN1C(=O)c1cnn(C(CC)CC)c1C (centres unmarked) [CBK304759]	106
O=C(CC1CCCO1)N1CCn2c(nnc2-c2cncc(Br)c2)C1 (centres unmarked) [CBK304762]	91.4
CCOCCCC(=O)N1CCn2c(nnc2-c2cncc(Br)c2)C1 [CBK304764]	91.5
CNS(=O)(=O)c1ccc(C(C)NC(=O)N2CCN3CCC2CC3)cc1 (centres unmarked) [CBK304765]	92.2
N#Cc1ccc(CN2CCC(NC3CCCn4nccc43)C2=O)cc1 (centres unmarked) [CBK304770]	97.8
Cc1conc1C(=O)N1CCCCC1CN1CCOCC1 (centres unmarked) [CBK304771]	92.7
CC1CN(c2cc(CO)c(F)cn2)CC2(CCOCC2)O1 (centres unmarked) [CBK304773]	91.9
CC1OCCC12CN(c1cc(CO)c(F)cn1)CCO2 (centres unmarked) [CBK304775]	102
Cn1ncc2ccc(-c3nnn[nH]3)cc21 [CBK304776]	93
Cc1cc(N2CCN(C(=O)CCc3nccs3)CC2)nc(C(C)C)n1 [CBK304778]	98.8
Cc1nc(C(C)NC(=O)c2cc(C3CC3)nc3c2c(C)nn3C)cs1 (centres unmarked) [CBK304779]	93.7
COCC(=O)N(C)C(CO)c1cc(OC)ccc1Br (centres unmarked) [CBK304780]	88.7
Cn1c(CN2CCN(c3ccc(C#N)cn3)CC2)nnc1C1CC1 [CBK304781]	92.5
CC(CN(C)C(=O)c1cn[nH]c1C1CCNC1)Oc1ccc(Cl)c(Cl)c1 (centres unmarked) [CBK304786]	91.1
Cc1nc(C)n(CC2CCCN(Cc3cc(C#N)cs3)C2)n1 (centres unmarked) [CBK304787]	92
CCn1c(=O)n(CC2(O)CCCOC2)c2cc(S(=O)(=O)N(C)C)ccc21 (centres unmarked) [CBK304788]	90.6
CN(C)c1ncccc1OC1CCN(c2nnc(C(F)(F)F)s2)C1 (centres unmarked) [CBK304789]	97.1
CCn1cc(S(=O)(=O)NC2CCc3[nH]c4ccc(C)cc4c3C2)cn1 (centres unmarked) [CBK304790]	99.7
Fc1cc(Br)c(CNCc2cocn2)c(N2CCCCC2)c1F [CBK304792]	86.8
CCc1csc(C2CN3CCCC3CO2)n1 (centres unmarked) [CBK304793]	89.4
COCCNS(=O)(=O)c1ccc(Br)c(C(=O)N(C)Cc2cnn(C)c2)c1 [CBK304795]	96.6
CCN(CC(C)C#N)C(=O)c1ccc2ccccc2n1 (centres unmarked) [CBK304801]	96.6

Structure (SMILES)	viability at 28.5 h, 10 µM [%]
CCCOC1CCCN(C(=O)c2cc(Cl)c[nH]2)C1 (centres unmarked) [CBK304802]	97.5
CCC(CNC(=O)c1cccc(C)n1)N1CCCC1 (centres unmarked) [CBK304803]	116
Cc1csc(CNCc2c(C)nn(C)c2N(C)C)n1 [CBK304804]	103
CCC(C)c1csc(C2CN3CCCC3CO2)n1 (centres unmarked) [CBK304805]	81.5
CC(C)Cc1csc(C2CN3CCCC3CO2)n1 (centres unmarked) [CBK304807]	83.9
Cc1nc(CNCc2c(C)nn(C)c2N(C)C)cs1 [CBK304808]	95.3
CCN1CCOC(CNc2ncnc3c2CCC3)C1 (centres unmarked) [CBK304811]	106
c1ccc(C(NCc2cncs2)C2CCCC2)cc1 (centres unmarked) [CBK304812]	82.6
c1sc(C2CN3CCCC3CO2)nc1C1CCCC1 (centres unmarked) [CBK304814]	90.4
COc1ccnc(N2CCc3c(ncn3C3CC3)C2)n1 [CBK304816]	95.7
COCCNC(=O)N1CCN(Cc2ccccn2)CC1 [CBK304817]	110
COCC1CCCN(Cc2cn(C)nc2C(C)(C)C)C1 (centres unmarked) [CBK304818]	108
Cc1occc1-c1nnc(NCc2cnn(C)c2C)o1 [CBK304819]	92.3
CC(C)C(CNCc1ccsc1)c1ccnn1C (centres unmarked) [CBK304821]	93.9
CC(C)C(CNCc1ccn(C)c1)c1ccnn1C (centres unmarked) [CBK304822]	91
CCSC1CCC(N(C)CC(=O)NCc2ccco2)C1 (centres unmarked) [CBK304823]	84.3
CCC(=O)N(C)C1CCN(c2ncnc3ccccc23)CC1 [CBK304829]	91.8
CN1CCOC(CNCc2ccc(OCC(N)=O)cc2)C1 (centres unmarked) [CBK304830]	102
Cc1cc(C)n(CC(C)CNC(=O)CCCN(C)C)n1 (centres unmarked) [CBK304831]	93
CCOC(=O)C1(O)CCN(c2ccc(C#N)cc2F)CC1 [CBK304836]	94
CCCCn1nccc1NC(=O)NC(C)c1ccncc1 (centres unmarked) [CBK304840]	99.2
CCCc1n[nH]c(C2CN(CCn3cccn3)CCO2)n1 (centres unmarked) [CBK304842]	106
Cc1noc(C)c1CN1CC2CCN(c3ccccc3)C2C1 (centres unmarked) [CBK304847]	99.7
CCOC(=O)C1CCCN(Cc2nnsc2Cl)C1 (centres unmarked) [CBK304848]	95.7

Structure (SMILES)	viability at 28.5 h, 10 µM [%]
Cn1cc(C2CCCN2C(=O)c2cccc(C#N)c2)cn1 (centres unmarked) [CBK304849]	98
COCCOC1CN(Cc2cn(-c3ccc(Br)cc3)nc2C(C)C)C1 [CBK304852]	87.7
CC1CCC(C(N)=O)CN1c1cc(Br)ccn1 (centres unmarked) [CBK304856]	94.9
CN(Cc1ccco1)C(=O)c1cccc(NC(=O)C2CC2)c1 [CBK304857]	101
COc1cccc(CNCC(c2ccnn2C)C(C)C)n1 (centres unmarked) [CBK304858]	105
COc1cccc(CC(=O)N(CCC#N)Cc2ccco2)c1 [CBK304859]	92.5
O=C(Nc1cccc(F)c1)N(CCO)Cc1cccnc1 [CBK304860]	104
CCCn1ccc(CNCC(c2ccnn2C)C(C)C)c1 (centres unmarked) [CBK304861]	87
COc1ccc(C(=O)N(CCC#N)Cc2ccco2)cc1 [CBK304862]	93.5
CCCn1cc(NC(=O)NC(C)(CC)CO)ccc1=O (centres unmarked) [CBK304864]	88.7
O=C(c1ccc2[nH]ccc2c1)N1CCN(CC2CCOC2)CC1 (centres unmarked) [CBK304866]	111
CN(C)C(=O)c1cccc(S(=O)(=O)NCC2CCCO2)c1 (centres unmarked) [CBK304867]	93.2
COC(=O)c1cccc2c1CCCN2Cc1nnc(C2CC2)o1 [CBK304868]	90.2
CC(Sc1nncs1)C(=O)N1CCCc2ccccc21 (centres unmarked) [CBK304871]	94.6
Cc1ccccc1OCC(O)CN1CCCC(C(F)(F)F)C1 (centres unmarked) [CBK304873]	103
CC(=O)Nc1cccc(NCc2csc(C3CCCC3)n2)c1 [CBK304874]	110
COc1ccc(CNC2CCCc3c2cnn3C)c(OC)c1 (centres unmarked) [CBK304875]	103
COC(=O)c1cccn2cc(CN3CCOCC3(C)C)nc12 [CBK304879]	93.8
CCN(Cc1cn2cccc(C(=O)OC)c2n1)CC1CCOC1 (centres unmarked) [CBK304880]	96.6
COC1CCN(C2CCc3c(Cl)cc(Cl)cc32)CC1 (centres unmarked) [CBK304883]	90.6
COCCNC(=O)c1nn(-c2cccc(C(C)C)c2)cc1O [CBK304884]	90.8
Cc1ccc(S(=O)(=O)N(CCO)CC2CC2)c(Cl)c1 [CBK304885]	75
COCCOCCCC(=O)OCC1Cc2cc(F)ccc2O1 (centres unmarked) [CBK304886]	91.2
